# Values of other authors, collected in paper PMC11682675 (Infection and Drug Resistance, 2024).
# Residues, ends and D or L forms follow the SMILES beside them.
# Conditions: reported by some studies
smiles,measurement,value
"CC[C@H](C)CCCCC(=O)N[C@@H](CCN)C(=O)N[C@H](C(=O)N[C@@H](CCN)C(=O)N[C@H]1CCNC(=O)[C@H]([C@@H](C)O)NC(=O)[C@H](CCN)NC(=O)[C@H](CCN)NC(=O)[C@H](CC(C)C)NC(=O)[C@@H](Cc2ccccc2)NC(=O)[C@H](CCN)NC1=O)[C@@H](C)O [PMB, Polymyxin B] (HELM PEPTIDE1{[CC[C@H](C)CCCCC(=O)[*:2]].[Dab].T.[Dab].[Dab].[Dab].[dF].L.[Dab].[Dab].T}$PEPTIDE1,PEPTIDE1,5:R3-11:R2$$$V2.0)",CL of PMB in ECMO patients,1.16 L/h
same,Vd of PMB in ECMO patients,19.7 L
